According to patent publication US12648928B2, “Intervention strategy for prevention or treatment of diabetes mellitus, autoimmune disease, inflammatory disease or cardiovascular disease” (ACADEMISCH MEDISCH CENTRUM, priority 2020, dated 2026):

Legend:
[1] = test system: pro-inflammatory M1 macrophages; test: Seahorse XF intracellular metabolism, M1 macrophages; type: cell-based; conditions: M1 macrophages differentiated in presence of LPS and IFNgamma (FIG. 23)
From the text: (§1) Intracellular metabolism measured using a Seahorse XF Analyzer, Uchimura T., The Innate Immune Sensor NLRC3 Acts as a Rheostat that Fine-Tunes T Cell Responses in Infection and Autoimmunity. Immunity 2019; Chou, AIM2 in regulatory T cells restrains autoimmune diseases, nature 2021.

[2] = test system: human (Jurkat) CD4 T cells; test: Seahorse XF mitochondrial metabolism (OCR), Jurkat CD4 T cells; type: cell-based; conditions: 100 uM; human (Jurkat) CD4 T cells (FIG. 22)
Description: Finally, it was uncovered that 6-BT also impacts the intracellular metabolism.
as §1, with “OCR=oxygen consumption rate, used as a proxy of cellular utilization of mitochondrial oxidative phosphorylation. OCR was” for “Intracellular metabolism”, “Analyzer” for “Analyzer,”, “Nature” for “nature”

NF-κB = NF-κB reporter macrophage luciferase assay (RAW264.7); type: cell-based, murine
Description: NF-κB signaling activation was assessed by luciferase activity assay. RAW264.7 cells stably transfected with the 3×-κB-luc plasmid (DNA construct containing three NF-κB sites from the Ig κ light chain promoter coupled to the gene encoding firefly luciferase) were grown in DMEM medium supplemented with 10% heat-inactivated fetal bovine serum, penicillin (100 U/ml), streptomycin (100 μg/ml), L-glutamine (2 mM). Cells were seeded in F-bottom 96-well […] metabolites at different concentrations (6-BT 0,1-100 μM, LysoPC(20:0) 1-10 μM, 16:0-18:2 PE 1-50 μM, MA-GPC 1-100 μM). Afterwards, cells were lysed with 25 μl/well 1×passive lysis buffer and firefly luciferase activity was measured by LUCIFERASE® Assay System (Promega, E1500) on a GLOMAX @-Multi Detection System (Promega).

INS1E beta cells = test: Seahorse XF intracellular metabolism, INS1E beta cells; type: cell-based, rat
From the text: Lastly, it was investigated whether 6-BT may influence the mitochondrial metabolism of beta cells, which rely on ATP and mitochondrial metabolite production for insulin exocytosis. […] Intracellular metabolism measured using a Seahorse XF Analyzer Uchimura T., The Innate Immune Sensor NLRC3 Acts as a Rheostat that Fine-Tunes T Cell Responses in Infection and Autoimmunity.

INS1E cells = test: In vitro stimulation of pancreatic beta cells: gene expression and insulin secretion; type: cell-based, rat
Description: INS1E cells (rat pancreatic beta-cell line) were maintained in complete RPMI1640 supplemented with 5% Fetal Bovine Serum, 2 mM L-glutamine, 5 μM beta-mercaptoethanol, 1 mM sodium pyruvate, 10 mM HEPES, 100 units/ml of penicillin and 100 μg/ml streptomycin. INSIE cells were seeded in 48-well plates at a density of 1×10^5 cells per well and left resting for one day. Subsequently, medium was replaced with 0.5 ml/well of INS1E complete RPMI1640 medium containing vehicle or the metabolites: 6-BT (1/10/25 μM), LysoPC(20:0) (5/10/50 μM), or MA-GPC (10/50/100 μM). After 24 hours, cells and supernatant were harvested for further analysis (gene expression and insulin secretion, respectively) and stored at −80° C. Cells were lysed in Tripure isolation reagent (Roche) before storage.
For glucose-stimulated insulin secretion (GSIS) assay, cells were preincubated in a Krebs-Ringer bicarbonate buffer (KRB) [115 mM NaCl, 5 mM KCl, 2.56 mM CaCl2), 1 mM MgCl2, 10 mM NaHCO3, 15 mM HEPES, and 0.3% of BSA (pH 7.4)] for 30 min at 37° C., following by stimulation with 1 mM glucose in KRB for 1 hour (0.5 ml/well) and stimulation with 22 mM glucose in KRB for another hour (0.5 ml/well) at 37° C. Supernatant was recovered after treatment with 1 mM glucose (Sigma-Aldrich) and 22 mM glucose and cells stored at −80° C. GSIS was performed on beta cells after treatment for 24-hour treatment with 10 μM 6-BT.
Specific ELISAs (R&D Systems) were utilized to measure the concentration of TNFα, IFNβ, and IFNγ in cell supernatant of murine monocytes, macrophages ad T cells, respectively, according to the manufacturer's instructions. The concentration of insulin after 24-hour treatment with metabolites or after GSIS were determined using Rat insulin ELISA (Mercodia) according to the manufacturer's instructions. GSIS was calculated by subtracting the concentration of insulin at 1 mM glucose to the insulin rate at 22 mM glucose.
Total RNA was extracted from Tripure isolation reagent cell lysates. RNA was converted to cDNA by with iScript kit (BioRad). Quantitative polymerase chain reaction (qPCR) was performed using SYBR Green-SensiMix (Bioline) on a CFX384 Touch Real-Time PCR Detection System (BioRad). The delta delta Ct method was used to calculate gene expression as fold-change compared to control (unstimulated conditions).
Given the positive association between plasma 6-BT levels and C-peptide concentrations (found in the clinical study), it was then questioned whether 6-BT can exert a direct effect on beta cells. Indeed, it is seen here that 6-BT induces, in IS1E beta cells, the gene expression of the transcription factors PDX1 and MAFA, which are important for beta cell maturation and functionality.

N[C@@H](Cc1c[nH]c2cc(Br)ccc12)C(=O)O [6-BT, 6-bromotryptophan]
glycolytic flux [1]: without affecting the glycolytic flux
mitochondrial metabolism [1]: could enhance the mitochondrial metabolism
mitochondrial metabolism (OCR) [2]: promotes the mitochondrial metabolism
NFκB pathway activation in macrophages (NF-κB; RAW264.7 3x-κB-luc, LPS 10/100 ng/ml 2 hours, different doses (FIG. 7)): can inhibit NFκB pathway activation
transcriptional activity of the NFkB complex (NF-κB; RAW264.7 NFkB luciferase reporter, overnight exposure 10-200 μM, 2 hours LPS (10 μg/ml) (FIG. 19)): inhibits the transcriptional activity of the NFkB complex in a dose-dependent manner
mitochondria metabolism at steady-state (INS1E beta cells; INS1E beta cells (FIG. 24)): increased mitochondria metabolism
mitochondria metabolism under hyperglycemia (INS1E beta cells; INS1E beta cells, 25 mM glucose (FIG. 24)): increased mitochondria metabolism
pancreatic beta-cell function (INS1E cells; INS1e beta-cells treated for 24 hours, beta cell differentiation markers (FIGS. 12 and 13)): enhances pancreatic beta-cell function
gene expression of the transcription factor MAFA (INS1E cells; beta cells (FIG. 17)): induces
gene expression of the transcription factor PDX1 (INS1E cells; beta cells (FIG. 17)): induces
insulin secretion at steady-state (INS1E cells; beta cells, 24-hour treatment (FIG. 17)): promotes insulin secretion
glucose-stimulated insulin secretion (INS1E cells; difference between insulin release at 1 mM and 22 mM glucose, 24-hour treatment with 10 μM): promotes insulin secretion
